From doi:10.1101/2020.03.04.976639v2 (biorxiv, 2020)

Experiments:
[1] = target: T1, PaThiL (P. aeruginosa thiamine monophosphate kinase, ThiL) (Pseudomonas aeruginosa, UniProt Q9HWX7); experiment: luminescent kinase assay; type: biochemical
T1 sequence (Q9HWX7 1-322): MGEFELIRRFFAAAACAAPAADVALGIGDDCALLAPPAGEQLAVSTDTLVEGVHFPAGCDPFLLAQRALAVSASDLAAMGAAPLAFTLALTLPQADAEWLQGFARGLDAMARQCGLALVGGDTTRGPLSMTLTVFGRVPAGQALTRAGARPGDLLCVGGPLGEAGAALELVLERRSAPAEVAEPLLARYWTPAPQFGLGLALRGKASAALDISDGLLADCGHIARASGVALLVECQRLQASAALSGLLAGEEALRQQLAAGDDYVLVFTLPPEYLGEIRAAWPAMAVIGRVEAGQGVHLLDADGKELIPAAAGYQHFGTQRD

[2] = target: T1, PaThiL (P. aeruginosa thiamine monophosphate kinase, ThiL); experiment: luminescent kinase assay; type: biochemical; conditions: random Bi-Bi fit; TMP 0.78-50 µM; 50 mM Tris-HCl pH 8.0, 5 mM MgCl2, 350 mM KCl

Ki [1]	Km [2]	Structure (SMILES)
114 ± 27 µM	–	O=C(O)Cc1c[nH]c2ccc(O)cc12 [5-hydroxyindolacetic acid]
–	111 ± 8 µM	Nc1ncnc2c1ncn2[C@@H]1O[C@H](COP(=O)(O)OP(=O)(O)OP(=O)(O)O)[C@@H](O)[C@H]1O [ATP]
